Results from patent publication US9850247B2 (Almac Discovery Limited, priority 2013, dated 2017).
pEC50, pIC50: −log10 of the molar value. Structures can show the parent of a compound that is named as a salt.

How the values were obtained:
[1] = CLint estimates using human liver microsomes (Method 4); assay type: in vitro ADME; settings: pH 7.4, 1 μM compound, read-out: Mics - CLint (HLM CLint)
In short: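 Compound at 1 μM (0.1% DMSO) incubated with human liver microsomes (0.5 mg protein/mL) in 0.1 M phosphate pH 7.4 at 37 °C, started with 1 mM NADPH. Samples taken 2–50 min, quenched in methanol, measured by LC/MS/MS (MRM). Half-life and CLint derived from the slope of ln peak area versus time.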

[2] = biological target: T1, Wee-1 kinase (Homo sapiens, UniProt P30291); test: Measurement of Wee-1 kinase activity (ADP-Glo luminescent kit); assay type: biochemical
T1 construct: purchased Invitrogen PV3817
In short: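 Activated Wee-1 was pre-incubated 30 min at RT with compound in 40 mM Tris-HCl, 20 mM MgCl2, 0.1 mg/mL BSA and 2 mM DTT. The reaction was started with an aliquot of 2.0 μg/mL poly(Lys,Tyr 4:1) plus 30 μM ATP and run 1 h at RT. ADP-Glo luminescence gave IC50 by non-linear fit.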

[3] = system: phospho-cdc2 (Tyr15) in HT-29 cells; test: Effect on phosphorylation of cdc2 at Tyr15, PathScan ELISA (Method 2); assay type: cell-based; settings: Homo sapiens, 8 h, eight hours incubation, read-out: HT29 pCDC2 method 2
Procedure: Method 2: Determining the Effect of Compounds on the phosphorylation of cdc2 at Tyr15
The colorectal cancer cell lines HT-29 and HCT-116 were purchased from the ATCC and routinely maintained in McCoy's Medium (Invitrogen) supplemented with 10% Foetal Calf Serum.
The cells were trypsinised from their growing vessel and counted, 100 μL of cell suspension containing 6000 cells was pipetted into black 96 well Co-star plates and incubated overnight to allow adherence to the surface at a temperature of 37° C. and an atmosphere of 5% CO2. Test compounds were formulated in DMSO and diluted in foetal calf serum supplemented medium. Incubating medium was removed by aspiration and diluted drug supplemented medium added to each well.
The plate was returned to the incubator for an additional eight hours at 37° C. and an atmosphere of 5% CO2. Post incubation, the drug supplemented medium was aspirated from each well and the cells were washed once in ice-cold phosphate buffered saline (PBS). 100 μL of cell lysis buffer (Cell Signalling Technologies #9803) containing 20 mM Tris, 150 mM NaCl, 1 mM EDTA, 1 mM EGTA, 1% Triton-X100, 2.5 mM sodium pyrophosphate, 1 mM glycerophosphate, 1 mM Na3VO4 and 1 μg/mL leupeptin was added to each well of the 96 well plate and incubated at 4° C. for 30 min. The samples on the plate were snap frozen at −80° C. until required. Immediately before the continuation of the assay, the sample plate was thawed and centrifuged at 4° C. for 10 min and the supernatant transferred to secondary tubes or 96 well plate.
Cell supernatant was mixed in a ratio of 1:1 with sample dilutent buffer and vortexed for one minute. 100 μL of diluted sample was pipetted into pre-coated plates containing a rabbit polyclonal antibody for phospho-cdc2 (Tyr15) (Cell Signalling Technologies PathScan kit #7176). The plate was sealed and incubated overnight at 4° C.
The plate seal was removed and the well contents aspirated, followed by 3×5 min washes with 200 μL of diluted wash buffer. Between each wash the plate was tapped firmly onto blotting paper to ensure the removal of all kit solution. 100 μL of kit detection antibody was added to each well and the plate re-sealed and incubated at 37° C. for 1 h. Post incubation the plate was washed and processed in a similar manner to that previously described.
100 μL of horseradish peroxidise-linked secondary antibody was added to each test well, the plate sealed and incubated for thirty minutes at 37° C. Post incubation, the plate was washed as previously stated, followed by the addition of 100 μL of 3,3′,5,5′ tetramethylbenzidine (TMB reagent). The plate was sealed and incubated at RT for 30 min.
100 μL of stop solution was added to each well and the underside of the plate wiped with a lint-free tissue, prior to spectrophotometric determination. Absorbance from each well was read at 450 nm within 30 min of the addition of the stop solution.
The percentage of phospho-cdc2 was calculated compared to DMSO control and plotted versus the concentration of inhibitor using GraphPad Prism. Data was fitted using non-linear regression analysis and IC50 values generated.

[4] = system: phospho-cdc2 (Tyr15) in HT-29 cells; test: Effect on Cdc2 phosphorylation at Tyr15, Cell-Based ELISA Base Kit (Method 3); settings: Homo sapiens, HT-29, 8 h, eight hours incubation, normalized to total cdc2, read-out: HT29 pCDC2 method 3
In short: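 HT-29 cells were treated with compounds for 8 h at 37 °C, then fixed in 4% formaldehyde. Phospho-cdc2 (Tyr15) and total cdc2 were read by dual-fluorogenic cell-based ELISA at 600/450 nm. Phospho signal was normalized to total cdc2 and expressed as % of DMSO control, and EC50 came from non-linear regression.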

T1 sequence (P30291 whole entry): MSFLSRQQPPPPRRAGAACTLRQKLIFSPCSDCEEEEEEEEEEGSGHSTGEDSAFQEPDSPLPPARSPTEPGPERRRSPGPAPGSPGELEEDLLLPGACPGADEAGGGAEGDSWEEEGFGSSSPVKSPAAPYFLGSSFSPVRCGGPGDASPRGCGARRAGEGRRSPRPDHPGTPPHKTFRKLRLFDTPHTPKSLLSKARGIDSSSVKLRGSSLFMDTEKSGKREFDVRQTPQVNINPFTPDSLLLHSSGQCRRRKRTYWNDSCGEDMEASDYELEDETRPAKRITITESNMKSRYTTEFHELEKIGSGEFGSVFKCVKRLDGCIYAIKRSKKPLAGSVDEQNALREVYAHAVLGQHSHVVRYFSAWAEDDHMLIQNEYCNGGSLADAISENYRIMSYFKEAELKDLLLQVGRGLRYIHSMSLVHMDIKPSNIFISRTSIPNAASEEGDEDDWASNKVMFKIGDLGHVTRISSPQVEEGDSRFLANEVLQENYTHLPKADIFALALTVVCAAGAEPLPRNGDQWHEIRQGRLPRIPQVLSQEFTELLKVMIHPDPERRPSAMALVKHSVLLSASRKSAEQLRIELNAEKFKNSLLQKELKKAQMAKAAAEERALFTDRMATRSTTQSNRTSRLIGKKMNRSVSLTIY

SMILES	microsomal CLint at 1 μM [1] [µL/min/mg]	pIC50 [2]	pIC50 [3]	pEC50 [4]
CN1c2nc(Nc3ccc4c(c3)CNCC4)ncc2C(=O)N(c2c(Cl)cccc2Cl)C1c1ccccc1 (racemic) [Example 23, (rac)-3-(2,6-Dichlorophenyl)-1-methyl-2-phenyl-7-((1,2,3,4-tetrahydroisoquinolin-7-yl)amino)-2,3-dihydropyrimido[4,5-d]pyrimidin-4(1H)-one]	15 to 50	≤ 7.00	≤ 6.00	
CN1CN(c2c(Cl)cccc2Cl)C(=O)c2cnc(Nc3ccc(S(C)(=N)=O)cc3)nc21 (racemic) [Example 30, (rac)-3-(2,6-Dichlorophenyl)-1-methyl-7-((4-(S-methylsulfonimidoyl)phenyl)amino)-2,3-dihydropyrimido[4,5-d]pyrimidin-4(1H)-one]		7.00 to 8.00	≤ 6.00	
CN1CN(c2c(Cl)cccc2Cl)C(=O)c2cnc(Nc3ccc(N4CCN(CC(=O)O)CC4)cc3)nc21 [Example 4, 2-(4-(4-((6-(2,6-Dichlorophenyl)-8-methyl-5-oxo-5,6,7,8-tetrahydropyrimido[4,5-d]pyrimidin-2-yl)amino)phenyl)piperazin-1-yl)acetic acid hydrochloride]	≤ 15	7.00 to 8.00	≤ 6.00	
CN1CN(c2c(Cl)cccc2Cl)C(=O)c2cnc(Nc3ccc(N4CCNCC4)c(F)c3)nc21 [Example 7, 3-(2,6-Dichlorophenyl)-7-((3-fluoro-4-(piperazin-1-yl)phenyl)amino)-1-methyl-2,3-dihydropyrimido[4,5-d]pyrimidin-4(1H)-one]	≤ 15	7.00 to 8.00	6.00 to 7.00	
O=C1c2cnc(Nc3ccc(N4CCNCC4)cc3)nc2NCN1c1c(Cl)cccc1Cl [Example 9, 3-(2,6-Dichlorophenyl)-7-((4-(piperazin-1-yl)phenyl)amino)-2,3-dihydropyrimido[4,5-d]pyrimidin-4(1H)-one]	≤ 15	7.00 to 8.00	6.00 to 7.00	
CC1N(C)c2nc(Nc3ccc(N4CCNCC4)cc3)ncc2C(=O)N1c1c(Cl)cccc1Cl (centres unmarked) [Example 26, 3-(2,6-Dichlorophenyl)-1,2-dimethyl-7-((4-(piperazin-1-yl)phenyl)amino)-2,3-dihydropyrimido[4,5-d]pyrimidin-4(1H)-one]	≤ 15	7.00 to 8.00	≤ 6.00	
CN1CN(c2c(Cl)cccc2Cl)C(=O)c2cnc(Nc3ccc(CN4CCOCC4)cc3)nc21 [Example 27, 3-(2,6-Dichlorophenyl)-1-methyl-7-((4-(morpholinomethyl)phenyl)amino)-2,3-dihydropyrimido[4,5-d]pyrimidin-4(1H)-one]	≥ 50	7.00 to 8.00	6.00 to 7.00	
O=C1c2cnc(Nc3ccc(N4CCNCC4)cc3)nc2N2CCCC2N1c1c(Cl)cccc1Cl (centres unmarked) [Example 28, 6-(2,6-Dichlorophenyl)-2-((4-(piperazin-1-yl)phenyl)amino)-6a,7,8,9-tetrahydropyrimido[5,4-e]pyrrolo[1,2-a]pyrimidin-5(6H)-one]	≤ 15	7.00 to 8.00	6.00 to 7.00	
C[C@@H]1CN(c2ccc(Nc3ncc4c(n3)N(C)CN(c3c(Cl)cccc3Cl)C4=O)cc2CN(C)C)C[C@H](C)O1 [Example 151, 3-(2,6-dichlorophenyl)-7-((3-((dimethylamino)methyl)-4-((2S,6R)-2,6-dimethylmorpholino)phenyl)amino)-1-methyl-2,3-dihydropyrimido[4,5-d]pyrimidin-4(1H)-one]	≥ 50	≥ 8.00		6.00 to 7.00
CNCc1cc(Nc2ncc3c(n2)N(C)CN(c2c(Cl)cccc2Cl)C3=O)ccc1N(C)C [Example 153, 3-(2,6-dichlorophenyl)-7-((4-(dimethylamino)-3-((methylamino)methyl)phenyl)amino)-1-methyl-2,3-dihydropyrimido[4,5-d]pyrimidin-4(1H)-one]	15 to 50	≥ 8.00		6.00 to 7.00
CN(C)Cc1cc(Nc2ncc3c(n2)N(C)CN(c2c(Cl)cccc2Cl)C3=O)ccc1N1CCOCC1 [Example 154, 3-(2,6-dichlorophenyl)-7-((3-((dimethylamino)methyl)-4-morpholinophenyl)amino)-1-methyl-2,3-dihydropyrimido[4,5-d]pyrimidin-4(1H)-one]	15 to 50	≥ 8.00		6.00 to 7.00
C[C@@H]1CN(c2ccc(Nc3ncc4c(n3)N(C)CN(c3c(Cl)cccc3Cl)C4=O)cc2CO)C[C@H](C)N1 [Example 158, 3-(2,6-dichlorophenyl)-7-((4-((3S,5R)-3,5-dimethylpiperazin-1-yl)-3-(hydroxymethyl)phenyl)amino)-1-methyl-2,3-dihydropyrimido[4,5-d]pyrimidin-4(1H)-one]	≤ 15	≥ 8.00		6.00 to 7.00
CN(C)CC(=O)N1CCN(c2ccc(Nc3ncc4c(n3)N(C)CN(c3c(Cl)cccc3Cl)C4=O)cc2CO)CC1 [Example 161, 3-(2,6-dichlorophenyl)-7-((4-(4-(2-(dimethylamino)acetyl)piperazin-1-yl)-3-(hydroxymethyl)phenyl)amino)-1-methyl-2,3-dihydropyrimido[4,5-d]pyrimidin-4(1H)-one]	15 to 50	≥ 8.00		6.00 to 7.00
CN1CCC(c2ccc(Nc3ncc4c(n3)N(C)CN(c3c(Cl)cccc3Cl)C4=O)cc2CO)CC1 [Example 165, 3-(2,6-dichlorophenyl)-7-((3-(hydroxymethyl)-4-(1-methylpiperidin-4-yl)phenyl)amino)-1-methyl-2,3-dihydropyrimido[4,5-d]pyrimidin-4(1H)-one]	≤ 15	≥ 8.00		6.00 to 7.00
CN1CN(c2c(Cl)cccc2Cl)C(=O)c2cnc(Nc3ccc(C4CCNCC4)c(CO)c3)nc21 [Example 167, 3-(2,6-dichlorophenyl)-7-((3-(hydroxymethyl)-4-(piperidin-4-yl)phenyl)amino)-1-methyl-2,3-dihydropyrimido[4,5-d]pyrimidin-4(1H)-one]	≤ 15	≥ 8.00		≤ 6.00
CNCc1cccc(N2CN(c3c(Cl)cccc3Cl)C(=O)c3cnc(Nc4ccc(N5CCOCC5)cc4)nc32)c1 [Example 168, 3-(2,6-dichlorophenyl)-1-(3-((methylamino)methyl)phenyl)-7-((4-morpholinophenyl)amino)-2,3-dihydropyrimido[4,5-d]pyrimidin-4(1H)-one]	≤ 15	≥ 8.00		6.00 to 7.00
CCN1CN(c2c(Cl)cccc2Cl)C(=O)c2cnc(Nc3ccc(N4CCNCC4)cc3)nc21 [Example 169, 3-(2,6-dichlorophenyl)-1-ethyl-7-((4-(piperazin-1-yl)phenyl)amino)-2,3-dihydropyrimido[4,5-d]pyrimidin-4(1H)-one]	≤ 15	7.00 to 8.00		≤ 6.00
CCN1CN(c2c(Cl)cccc2Cl)C(=O)c2cnc(Nc3ccc(N4C[C@@H](C)N[C@@H](C)C4)c(CO)c3)nc21 [Example 170, 3-(2,6-dichlorophenyl)-7-((4-((3S,5R)-3,5-dimethylpiperazin-1-yl)-3-(hydroxymethyl)phenyl)amino)-1-ethyl-2,3-dihydropyrimido[4,5-d]pyrimidin-4(1H)-one]	15 to 50	≥ 8.00		6.00 to 7.00
